Experimental findings from article PMC10787407, “Regulation of polysaccharide in Wu‐tou decoction on intestinal microflora and pharmacokinetics of small molecular compounds in AIA rats” (Chinese Medicine, 2024) are described below.

The data set can be described thus: PK study of SM components in plasma of AIA rats by UPLC-MS/MS (MG vs MPS group). To be noted: for AUC 0-t / AUC 0-∞ / C max / T max / t 1/2 / AUC(0-inf) / Cmax / Tmax / half-life: then oral SM 39.2 g crude drug/kg, plasma, mean ± SEM; for Absorption under the intervention of PS: MPS vs MG group; for Cmax: C max; for Tmax: T max.
[1] abbreviates: MG group: AIA rats, saline 21 days.
The mark [2] stands for this setting: MPS group compared with the MG group, AIA rats.
Where [3] appears, read: MPS group: AIA rats, oral PS 9.8 g crude drug/kg/day 21 days.
Setting [4] is: Sprague-Dawley, rat, po, 39.2 g/kg/day, AUC 0-t, MPS group: AIA rats, oral PS 9.8 g crude drug/kg/day 21 days.
Setting [5] is: Sprague-Dawley, rat, po, 39.2 g/kg/day, MG group: AIA rats, saline 21 days.
[6] abbreviates: Sprague-Dawley, rat, po, 39.2 g/kg/day, MPS group: AIA rats, oral PS 9.8 g crude drug/kg/day 21 days.
Setting [7] is: Sprague-Dawley, rat, po, 39.2 g/kg/day, t 1/2, MG group: AIA rats, saline 21 days.
Where [8] appears, read: Sprague-Dawley, rat, po, 39.2 g/kg/day, t 1/2, MPS group: AIA rats, oral PS 9.8 g crude drug/kg/day 21 days.
Where [9] appears, read: Sprague-Dawley, rat, po, 39.2 g/kg/day, AUC 0-t, MG group: AIA rats, saline 21 days.

Procedure: In the PK study, 12 SD rats were divided into model group (MG group) and model + polysaccharide group (MPS group). Rats in the MPS group were given PS (9.8 g crude drug/kg/day) by oral administration, while rats in the MG group received the same amount of saline. After continuous administration for 21 days, rats in both groups were given SM (39.2 g crude drug/kg/day), and two groups of rats were subjected to a PK study.
The supernatant was collected and dried with N2, redissolved with 100 μL methanol, and centrifuged again after 10 min centrifugation at 4 °C, 13000 rpm. Then the supernatant was collected for UPLC-MS /MS analysis.
The Shimadzu UPLC-MS/MS system was used for the PK study. […] The multiple reaction monitoring (MRM) mode was used both in positive and negative mode. The MS parameters were as follows: flow rate of heating gas 10 L/min, flow rate of drying gas 10 L/min, flow rate of atomizing gas 3 L/min, interfacial temperature 300 ℃, DL temperature 250 ℃.
Separation was performed using a Waters ACQUITY UPLC BEH C18 column (2.1 mm × 100 mm, 1.7 μm). The mobile phase was 0.1% formic acid water (v/v) (A) and acetonitrile (B).

For the molecule `C[C@]12C[C@@H](O)[C@@H]3C[C@@]1(O[C@@H]1O[C@H](CO)[C@@H](O)[C@H](O)[C@H]1O)[C@@]3(COC(=O)c1ccccc1)C(=O)O2` [Albiflorin], under setting [1], the “AUC 0-t” value was 424.990 ± 55.691 ng·h/mL, the “AUC 0-∞” value was 458.506 ± 69.994 ng·h/mL, the C max is on record as 287.831 ± 42.177 ng/mL and the T max is recorded as 0.250 ± 0.001 h. Besides, the “t 1/2” value under setting [1] came to 2.488 ± 0.458 h. Under setting [2], the “Change of AUC 0-t after oral PS” value is reported as “increased” and the “Change of AUC 0-∞ after oral PS” value is “increased”. Further, under setting [3], the “AUC 0-t” value was determined as 644.268 ± 174.084 ng·h/mL, the “AUC 0-∞” value worked out at 698.946 ± 175.788 ng·h/mL, the C max amounted to 306.851 ± 57.880 ng/mL and the T max is listed as 0.139 ± 0.072 h. The “t 1/2” value under setting [3] is listed as 1.669 ± 0.080 h. Moreover, under “AIA rats”, the “Absorption under the intervention of PS” value is “increased”.
Regarding `CCN1C[C@]2(COC)[C@H](O)C[C@H](OC)[C@@]34[C@@H]5C[C@@]6(O)[C@H](OC(=O)c7ccccc7)[C@@H]5[C@@](O)([C@@H]([C@H](OC)[C@H]23)[C@@H]14)[C@@H](O)[C@@H]6OC` [Benzoylaconine], under setting [1], the “AUC 0-t” value came to 0.764 ± 0.082 ng·h/mL, the “AUC 0-∞” value was determined as 1.015 ± 0.158 ng·h/mL, the C max is given as 0.548 ± 0.178 ng/mL and the T max amounted to 0.125 ± 0.072 h. In addition, under setting [1], the “t 1/2” value amounted to 7.430 ± 5.148 h. In addition, under setting [3], the “AUC 0-t” value was found to be 1.064 ± 0.136 ng·h/mL, the “AUC 0-∞” value is 1.202 ± 0.128 ng·h/mL, the C max came out at 0.720 ± 0.116 ng/mL and the T max was determined as 0.083 ± 0.001 h. The “t 1/2” value under setting [3] is recorded as 3.875 ± 1.842 h.
Take `COC[C@@]12CC[C@H](OC)[C@]34C([C@H]([C@H](OC)[C@H]13)[C@]1(O)[C@H]3[C@@H](OC(=O)c5ccccc5)[C@](O)(C[C@H]34)[C@@H](OC)[C@@H]1O)N(C)C2` [Benzoylhypaconine]: under setting [1], the “AUC 0-t” value was 1.018 ± 0.049 ng·h/mL, the “AUC 0-∞” value was found to be 1.123 ± 0.062 ng·h/mL, the C max was determined as 0.467 ± 0.108 ng/mL and the T max is reported as 0.083 ± 0.001 h. In addition, the “t 1/2” value under setting [1] came to 3.938 ± 0.322 h. In addition, under setting [2], the “Change of AUC 0-∞ after oral PS” value is given as “increased” and the “Change of C max after oral PS” value is recorded as “increased”. Moreover, under setting [3], the “AUC 0-t” value stood at 1.394 ± 0.255 ng·h/mL, the “AUC 0-∞” value is 1.604 ± 0.229 ng·h/mL, the C max was 0.861 ± 0.160 ng/mL and the T max came out at 0.083 ± 0.001 h. Besides, the “t 1/2” value under setting [3] is 4.742 ± 0.904 h. Besides, for the setting “AIA rats”, the “Absorption under the intervention of PS” value is recorded as “increased”.
Turning to `COC[C@]12CN(C)C3[C@@H]4[C@H](OC)[C@H]1[C@@]3([C@@H](OC)C[C@H]2O)[C@@H]1C[C@@]2(O)[C@H](OC(=O)c3ccccc3)[C@@H]1[C@]4(O)[C@@H](O)[C@@H]2OC` [Benzoylmesaconitine], under setting [1], the “AUC 0-t” value came to 21.413 ± 1.140 ng·h/mL, the “AUC 0-∞” value was determined as 23.447 ± 1.422 ng·h/mL, the C max is listed as 14.305 ± 3.689 ng/mL and the T max amounted to 0.139 ± 0.079 h. For the same molecule, the “t 1/2” value under setting [1] is recorded as 3.530 ± 0.873 h. In addition, under setting [3], the “AUC 0-t” value is 25.368 ± 7.147 ng·h/mL, the “AUC 0-∞” value was determined as 25.465 ± 7.145 ng·h/mL, the C max was 15.899 ± 4.818 ng/mL and the T max is 0.083 ± 0.001 h. Under setting [3], the “t 1/2” value came out at 1.723 ± 0.296 h.
For the molecule `COc1ccc(-c2coc3cc(O[C@@H]4O[C@H](CO)[C@@H](O)[C@H](O)[C@H]4O)ccc3c2=O)cc1O` [Calycosin-7-glycoside], under setting [1], the “AUC 0-t” value is 17.473 ± 2.858 ng·h/mL, the “AUC 0-∞” value is 18.097 ± 2.629 ng·h/mL, the C max amounted to 17.607 ± 2.640 ng/mL and the T max was found to be 0.110 ± 0.062 h. Moreover, the “t 1/2” value under setting [1] is 2.342 ± 0.959 h. Under setting [3], the “AUC 0-t” value amounted to 15.987 ± 2.778 ng·h/mL, the “AUC 0-∞” value was 16.625 ± 2.476 ng·h/mL, the C max is recorded as 15.506 ± 2.308 ng/mL and the T max is recorded as 0.083 ± 0.001 h. Also, the “t 1/2” value under setting [3] turned out to be 2.113 ± 0.779 h.
The AUC(0-inf) is the area under the concentration-time curve extrapolated to infinity. A higher AUC(0-inf) goes with more exposure. Broadly, the Cmax is the highest concentration seen after dosing. Usually Tmax stands for the time at which the peak concentration occurs. Usually half-life stands for the time in which the quantity being followed falls by half. A higher half-life goes with slow decline. Consider `COc1ccc(-c2coc3cc(O)ccc3c2=O)cc1` [Formononetin], for which the “AUC 0-t” value is, setting by setting: under setting [1], 15.278 ± 1.823 ng·h/mL; under setting [4], 12.3 ± 1.98 ng·h/mL. In addition, under setting [2], the “Change of C max after oral PS” value is “reduced”. In addition, the “Absorption under the intervention of PS” value (AIA rats) is “decreased”. Besides, the AUC(0-inf) reads like this: under setting [5], 17.5 ± 1.69 ng·h/mL; under setting [6], 13.6 ± 1.93 ng·h/mL. Besides, the Cmax is, setting by setting: under setting [5], 7.39 ± 1.16 ng/mL; under setting [6], 4.5 ± 0.902 ng/mL. For the same molecule, the Tmax runs as follows: under setting [5], 0.083 ± 0.001 h; under setting [6], 0.25 ± 0.001 h. Further, the half-life reads like this: under setting [7], 4.27 ± 0.406 h; under setting [8], 3.76 ± 0.557 h.
Regarding `CC1(C)[C@@H](O)CC[C@]2(C)[C@H]3C(=O)C=C4[C@@H]5C[C@@](C)(C(=O)O)CC[C@]5(C)CC[C@@]4(C)[C@]3(C)CC[C@@H]12` [Glycyrrhetinic acid], the AUC 0-t by setting is: under setting [9], 28800 ng·h/mL; under setting [4], 30500 ng·h/mL. The AUC(0-inf) was 32900 ng·h/mL under setting [5] and 34500 ng·h/mL under setting [6]. For the same molecule, the peak concentration (Cmax) runs as follows: under setting [5], 7830 ± 283 ng/mL; under setting [6], 11600 ng/mL. Moreover, the Tmax is, setting by setting: under setting [5], 2 ± 0.001 h; under setting [6], 2 ± 0.001 h. Besides, the half-life was 10.7 ± 3.72 h under setting [7] and 10.8 ± 1.96 h under setting [8].
Take `CC1(C)[C@@H](O[C@H]2O[C@H](C(=O)O)[C@@H](O)[C@H](O)[C@H]2O[C@@H]2O[C@H](C(=O)O)[C@@H](O)[C@H](O)[C@H]2O)CC[C@]2(C)[C@H]3C(=O)C=C4[C@@H]5C[C@@](C)(C(=O)O)CC[C@]5(C)CC[C@@]4(C)[C@]3(C)CC[C@@H]12` [Glycyrrhizic acid]: the “t 1/2” value under setting [1] came out at 7.605 ± 1.142 h. The “Change of C max after oral PS” value under setting [2] is on record as “significantly increased”. Further, the “Absorption under the intervention of PS” value (AIA rats) is listed as “increased”. The AUC 0-t under setting [9] turned out to be 23100 ng·h/mL. Moreover, the AUC 0-t under setting [4] amounted to 29600 ng·h/mL. In addition, under setting [5], the AUC(0-inf) was 25900 ng·h/mL, the highest level (Cmax) was 3800 ± 304 ng/mL and the time to peak (Tmax) turned out to be 0.5 ± 0.001 h. Under setting [6], the AUC(0-inf) is 27400 ng·h/mL, the Cmax came out at 5200 ± 706 ng/mL and the Tmax came to 0.667 ± 0.236 h. The molecule also had a half-life under setting [8] of 7.25 ± 0.086 h.
`O=C(/C=C/c1ccc(O)cc1)c1ccc(O)cc1O` [Isoliquiritigenin]: the “Change of C max after oral PS” value under setting [2] is “significantly increased”. Further, the “Absorption under the intervention of PS” value (AIA rats) was “increased”. The same molecule yielded an AUC 0-t under setting [9] of 8.76 ± 1.42 ng·h/mL and an AUC 0-t under setting [4] of 9.47 ± 1.45 ng·h/mL. In addition, the area under the curve AUC(0-inf) by setting is: under setting [5], 9.61 ± 1.6 ng·h/mL; under setting [6], 10.5 ± 1.27 ng·h/mL. Also, the Cmax by setting is: under setting [5], 4 ± 0.545 ng/mL; under setting [6], 5.42 ± 0.422 ng/mL. The Tmax by setting is: under setting [5], 0.083 ± 0.001 h; under setting [6], 0.167 ± 0.083 h. Also, the half-life runs as follows: under setting [7], 3.12 ± 0.571 h; under setting [8], 3.87 ± 0.889 h.
`O=C1C[C@@H](c2ccc(O)cc2)Oc2cc(O)ccc21` [Liquiritigenin]: under setting [1], the “AUC 0-t” value came out at 48.549 ± 6.497 ng·h/mL, the “AUC 0-∞” value amounted to 49.404 ± 6.315 ng·h/mL, the C max is 25.519 ± 7.560 ng/mL and the T max is listed as 0.139 ± 0.079 h. Besides, the “t 1/2” value under setting [1] worked out at 1.841 ± 0.242 h. Under setting [3], the “AUC 0-t” value stood at 47.195 ± 4.360 ng·h/mL, the “AUC 0-∞” value stood at 47.548 ± 4.374 ng·h/mL, the C max is listed as 23.367 ± 4.695 ng/mL and the T max was 0.083 ± 0.001 h. In addition, under setting [3], the “t 1/2” value was 1.448 ± 0.025 h.
For `CCN1C[C@]2(COC)CC[C@H](O)[C@]34C1[C@H]([C@H](OC)[C@H]23)[C@@]1(O)C[C@H](OC)[C@H]2C[C@@H]4[C@@H]1[C@H]2O` [Neoline], under setting [1], the “AUC 0-t” value amounted to 7.417 ± 0.718 ng·h/mL, the “AUC 0-∞” value amounted to 8.058 ± 0.838 ng·h/mL, the C max was 3.221 ± 1.040 ng/mL and the T max amounted to 0.333 ± 0.118 h. In addition, the “t 1/2” value under setting [1] was 3.245 ± 0.999 h. Under setting [3], the “AUC 0-t” value stood at 7.559 ± 0.880 ng·h/mL, the “AUC 0-∞” value was found to be 7.980 ± 0.757 ng·h/mL, the C max turned out to be 3.695 ± 1.005 ng/mL and the T max came to 0.250 ± 0.001 h. Also, the “t 1/2” value under setting [3] is 2.486 ± 0.349 h.
